Reference: the NIST ThermoML archive (doi:10.1021/je0602723)
Numbers after ± are expanded uncertainties.

Assay: activity coefficient (dimensionless); of the first substance listed, at infinite dilution; xn = mol fraction of the nth substance listed
Conditions: Liquid, Chromatography, x1 = 0

activity coefficient (412.3 K): 5.1 ± 0.35
activity coefficient (417.1 K): 6.1 ± 0.42
activity coefficient (427.1 K): 4.9 ± 0.33
SMILES: O=C1CCCCCN1 [1-aza-2-cycloheptanone] + CCOS(=O)(=O)[O-].CCn1cc[n+](C)c1
